The test system of data set [1] is Staphylococcus aureus No. 50774. Put plainly: in vivo efficacy against systemic infection in mice, Staphylococcus aureus No. 50774. The following applies: NO.50774, in Mus musculus, po, 336 h.
Description: Male mice (ddY) weighing about 20 g
Intravenous infection with (about
5 × 10^8 cells/mouse) of a bacterial
(§2) Twice, about 5 minutes and 6 hours after infection.
Data set [2] shares this test system. Put plainly: In vitro antibacterial activity (MIC), Staphylococcus aureus No. 50774. Format: cell-based. The following applies: Staphylococcus aureus No. 50774; read-out: minimum inhibitory concentration (MIC). From the text: (§1) (MIC) (μg/ml) Method; Chemotherapy, 22(6), 1126 (1974)
Data set [3] relates to Serratia marcescens IFC 3736. Put plainly: In vitro antibacterial activity (MIC), Serratia marcescens IFC 3736. It counts as cell-based.
Excerpt: as §1

Data set [4] concerns Staphylococcus aureus 209P JC-1. Put plainly: In vitro antibacterial activity (MIC), Staphylococcus aureus 209P JC-1. It counts as cell-based. The following applies: Staphylococcus aureus 209P JC-1; read-out: minimum inhibitory concentration (MIC).
Excerpt: as §1

The subject of data set [5] is Salmonella enteritidis No. 1891. Nature of the data set: In vitro antibacterial activity (MIC), Salmonella enteritidis No. 1891. Format: cell-based. The following applies: Salmonella enterica, read-out: minimum inhibitory concentration (MIC).
Excerpt: as §1

A further data set relates to Proteus morganii Kono. Put plainly: In vitro antibacterial activity (MIC), Proteus morganii Kono. The following applies: Morganella morganii, read-out: minimum inhibitory concentration (MIC). Format: cell-based.
Excerpt: as §1

Data set [6] relates to Escherichia coli P-5101. Nature of the data set: In vitro antibacterial activity (MIC), Escherichia coli P-5101. The following applies: P5101; Escherichia coli P-5101; read-out: minimum inhibitory concentration (MIC). Format: cell-based.
Excerpt: as §1

Data set [7] has as its system Pseudomonas aeruginosa Tsuchijima. Nature of the data set: In vitro antibacterial activity (MIC), Pseudomonas aeruginosa Tsuchijima. The following applies: Pseudomonas aeruginosa Tsuchijima; read-out: minimum inhibitory concentration (MIC). It counts as cell-based.
Excerpt: as §1

For data set [8], the system named is Escherichia coli NIHJ JC-2. Put plainly: In vitro antibacterial activity (MIC), Escherichia coli NIHJ JC-2. It counts as cell-based.
Excerpt: as §1

The next data set deals with Proteus mirabilis P-2381. Nature of the data set: In vitro antibacterial activity (MIC), Proteus mirabilis P-2381. The following applies: P2381; Proteus mirabilis P-2381; read-out: minimum inhibitory concentration (MIC). Format: cell-based.
Excerpt: as §1

For data set [9], the system named is Pseudomonas aeruginosa No. 12. Put plainly: In vitro antibacterial activity (MIC), Pseudomonas aeruginosa No. 12. The following applies: Pseudomonas aeruginosa No. 12; read-out: minimum inhibitory concentration (MIC). It counts as cell-based.
Excerpt: as §1

The test system of data set [10] is Shigella flexneri 4a P-330. Put plainly: In vitro antibacterial activity (MIC), Shigella flexneri 4a P-330. Format: cell-based. The following applies: 4AP330, read-out: minimum inhibitory concentration (MIC).
Excerpt: as §1

Data set [11] has as its system Streptococcus faecalis P-2473. Nature of the data set: In vitro antibacterial activity (MIC), Streptococcus faecalis P-2473. Format: cell-based. The following applies: Enterococcus faecalis, P2473; Streptococcus faecalis P-2473; read-out: minimum inhibitory concentration (MIC).
Excerpt: as §1

Data set [12] deals with Corynebacterium pyogenes C-21. Nature of the data set: In vitro antibacterial activity (MIC), Corynebacterium pyogenes C-21. Format: cell-based. The following applies: Rhodococcus (subgen. Prescottella) equi, C21; Corynebacterium pyogenes C-21; read-out: minimum inhibitory concentration (MIC).
Excerpt: as §1

Data set [13] deals with Salmonella typhimurium 8-9. Nature of the data set: In vitro antibacterial activity (MIC), Salmonella typhimurium 8-9. It counts as cell-based. The following applies: Salmonella enterica, read-out: minimum inhibitory concentration (MIC).
Excerpt: as §1

Data set [14] deals with Pseudomonas aeruginosa No. 12. Put plainly: in vivo efficacy against systemic infection in mice, Pseudomonas aeruginosa No. 12. The following applies: NO.12, in Mus musculus, po, 168 h.
Description: Male mice (ddY) weighing about 20 g
(3) Pseudomonas aeruginosa No. 12;
(about 5 × 10^3 cells/mouse) of a bacterial
(§3) suspension in trypto-soy broth with 4% mucin.
as §2
The numerals in the table show ED50 (mg/kg). ED50 values were
Data set [15] relates to Enterobacter cloacae P-2540. Nature of the data set: In vitro antibacterial activity (MIC), Enterobacter cloacae P-2540. It counts as cell-based.
Excerpt: as §1

Data set [16] concerns Gram-positive bacteria and Gram-negative bacteria. Put plainly: In vitro antibacterial activity against 19 strains of bacteria (overall). It counts as cell-based. The following applies: comparisons are with compounds of the invention.
Excerpt: as §1

In data set [17] the test system is Streptococcus pyogenes 65A. Nature of the data set: In vitro antibacterial activity (MIC), Streptococcus pyogenes 65A. Format: cell-based. The following applies: Streptococcus pyogenes 65A; read-out: minimum inhibitory concentration (MIC).
Excerpt: as §1

The next data set deals with Escherichia coli P-140a. Put plainly: In vitro antibacterial activity (MIC), Escherichia coli P-140a. The following applies: read-out: minimum inhibitory concentration (MIC). Format: cell-based.
Excerpt: as §1

Data set [18] deals with Gram-positive and Gram-negative bacteria. Put plainly: in vivo therapeutic efficacy against systemic infections in mice (overall). Set-up: species or system mice (ddY). The following applies: systemic infections with Gram-positive and Gram-negative bacteria.
For the next data set, the system named is Shigella flexneri 2a. Put plainly: In vitro antibacterial activity (MIC), Shigella flexneri 2a. It counts as cell-based. The following applies: read-out: minimum inhibitory concentration (MIC).
Excerpt: as §1

The subject of data set [19] is Klebsiella pneumoniae No. 13. Nature of the data set: In vitro antibacterial activity (MIC), Klebsiella pneumoniae No. 13. Format: cell-based.
Excerpt: as §1

Another data set in a line: in vivo. The following applies: for LD50 at 168 h: mouse, in vivo, po. As to the method: The number of dead mice was counted after 7 days, and the value of median lethal dose (LD50, mg/kg) was calculated in accordance with the Behrens-Kaerber method.
The subject of data set [20] is Escherichia coli P-5101. Put plainly: in vivo efficacy against systemic infection in mice, Escherichia coli P-5101. The following applies: P5101, in Mus musculus, po, 168 h.
Description: Male mice (ddY) weighing about 20 g
Intraperitoneal infection with (about
9 × 10^6 cells/mouse) of a bacterial
as §3, §2
[21] abbreviates: Salmonella enteritidis No. 1891.
[22] abbreviates: Escherichia coli, NIHJJC2, read-out: minimum inhibitory concentration (MIC).
Where [23] appears, read: IFC3736, Serratia marcescens IFC 3736, read-out: minimum inhibitory concentration (MIC).
[24] abbreviates: P2540, Enterobacter cloacae P-2540, read-out: minimum inhibitory concentration (MIC).
[25] abbreviates: Klebsiella pneumoniae No. 13, read-out: minimum inhibitory concentration (MIC).

Results on three compounds are retold here after patent publication US4352803A, “Novel naphthyridine derivatives, intermediates thereof, processes for preparation thereof, and use thereof” (Dainippon Pharmaceutical Co., Ltd., priority 1978, dated 1982).

≈ marks a conversion by molar mass, not a printed value. Entries after “also recorded” stand apart in the source; their conditions may differ. Like-named read-outs stand apart in the source and are kept apart here.

The ED50 is the dose that gives a 50% effect, or the effect in half of the subjects. Turning to `CCn1cc(C(=O)O)c(=O)c2ccc(N3CCNCC3)nc21` [Compound A, 1-Ethyl-1,4-dihydro-4-oxo-7-(1-piperazinyl)-1,8-naphthyridine-3-carboxylic acid], the ED50 was greater than 100 mg/kg in data set [1] and greater than 200 mg/kg in data set [14]. The MIC in [2] was determined as 50 µg/mL (≈ 165 µM); in data set [3] (Serratia marcescens, IFC3736, read-out: minimum inhibitory concentration (MIC)), 12.5 µg/mL (≈ 41.3 µM); in data set [4] it was 25 µg/mL (≈ 82.7 µM); in data set [5] (setting [21]), 1.56 µg/mL (≈ 5.16 µM); with Proteus morganii Kono, 6.25 µg/mL (≈ 20.7 µM); in the data set on Escherichia coli P-5101 [6], 3.13 µg/mL (≈ 10.4 µM). The MIC in data set [7] was 25 µg/mL (≈ 82.7 µM); in [8] (setting [22]), 6.25 µg/mL (≈ 20.7 µM); in the data set on Proteus mirabilis P-2381 it was 25 µg/mL (≈ 82.7 µM); in data set [9], 25 µg/mL (≈ 82.7 µM); in data set [10], 12.5 µg/mL (≈ 41.3 µM); in [11] it was greater than 100 µg/mL. The MIC in data set [12] was 50 µg/mL (≈ 165 µM); in data set [13] (TYPHIMURIUM), 6.25 µg/mL (≈ 20.7 µM); in data set [15] (Enterobacter cloacae, P2540, read-out: minimum inhibitory concentration (MIC)), 6.25 µg/mL (≈ 20.7 µM); in [17] it was 50 µg/mL (≈ 165 µM); with Escherichia coli P-140a (Escherichia coli) it was 6.25 µg/mL (≈ 20.7 µM); in the data set with Shigella flexneri 2a it was 6.25 µg/mL (≈ 20.7 µM). In addition, the MIC in data set [19] (Klebsiella pneumoniae, NO.13, read-out: minimum inhibitory concentration (MIC)) is 12.5 µg/mL (≈ 41.3 µM). For the same compound, the “antibacterial activity (in words)” value in [16] is reported as “much inferior antibacterial activity; also recorded: clearly inferior”. Besides, the “therapeutic effect / in vivo antibacterial activity (in words)” value in data set [18] is recorded as “clearly inferior”.

In general, LD50 refers to the dose at which mortality reaches 50%. Turning to `CCn1cc(C(=O)O)c(=O)c2cc(F)c(N3CCN(C)CC3)nc21` [Compound B, 1-Ethyl-6-fluoro-1,4-dihydro-7-(4-methyl-1-piperazinyl)-4-oxo-1,8-naphthyridine-3-carboxylic acid], the ED50 is 4.8 mg/kg in data set [1], 1.2 mg/kg in the data set with Escherichia coli P-5101 [20] and 10.6 mg/kg in data set [14]. Further, the MIC in [2] was 1.56 µg/mL (≈ 4.67 µM); in [3] (setting [23]) it was 1.56 µg/mL (≈ 4.67 µM); in data set [4], 1.56 µg/mL (≈ 4.67 µM); in data set [5] (ENTERITIDIS) it was 0.1 µg/mL (≈ 0.299 µM); in the data set with Proteus morganii Kono it was 0.78 µg/mL (≈ 2.33 µM); in the data set on Escherichia coli P-5101 [6] it was 0.2 µg/mL (≈ 0.598 µM). Further, the MIC in data set [7] was 1.56 µg/mL (≈ 4.67 µM); in [8] (setting [22]), 0.39 µg/mL (≈ 1.17 µM); in the data set on Proteus mirabilis P-2381, 1.56 µg/mL (≈ 4.67 µM); in data set [9], 3.13 µg/mL (≈ 9.36 µM); in [10], 0.78 µg/mL (≈ 2.33 µM); in data set [11] it was 12.5 µg/mL (≈ 37.4 µM). Besides, the MIC in data set [12] turned out to be 1.56 µg/mL (≈ 4.67 µM); in data set [13] (Salmonella typhimurium 8-9), 0.2 µg/mL (≈ 0.598 µM); in [15] (setting [24]) it was 0.39 µg/mL (≈ 1.17 µM); in [17], 6.25 µg/mL (≈ 18.7 µM); with Escherichia coli P-140a (Escherichia coli), 0.39 µg/mL (≈ 1.17 µM); with Shigella flexneri 2a it was 0.39 µg/mL (≈ 1.17 µM). For the same compound, the MIC in data set [19] (setting [25]) was 0.39 µg/mL (≈ 1.17 µM). For the same compound, in the data set “in vivo” (acute, oral, mice), the “toxicity (in words)” value is “extremely high toxicity”. In “in vivo”, this compound returned an LD50 at 168 h of 210 mg/kg. Further, in data set [16], the “antibacterial activity (in words)” value is listed as “equivalent or higher antibacterial activity”.

As to `C=Cn1cc(C(=O)O)c(=O)c2cc(Cl)c(N3CCNCC3)nc21` [Compound 4, 6-Chloro-1,4-dihydro-4-oxo-7-(1-piperazinyl)-1-vinyl-1,8-naphthyridine-3-carboxylic acid], the values for the ED50 (in data set [1]; in the data set on Escherichia coli P-5101 [20]; in [14]) were roughly 100 mg/kg, 4.8 mg/kg and 18.5 mg/kg, respectively. Moreover, the MIC was determined as 6.25 µg/mL (≈ 18.7 µM) in data set [2]; 0.78 µg/mL (≈ 2.33 µM) in [3] (setting [23]); 3.13 µg/mL (≈ 9.35 µM) in data set [4]; 0.2 µg/mL (≈ 0.597 µM) in data set [5] (setting [21]); 0.2 µg/mL (≈ 0.597 µM) with Proteus morganii Kono (Proteus morganii Kono); 0.1 µg/mL (≈ 0.299 µM) with Escherichia coli P-5101 [6]. Also, the MIC in data set [7] was found to be 1.56 µg/mL (≈ 4.66 µM); in [8] (NIHJJC2, Escherichia coli NIHJ JC-2, read-out: minimum inhibitory concentration (MIC)), 0.2 µg/mL (≈ 0.597 µM); in the data set with Proteus mirabilis P-2381, 0.78 µg/mL (≈ 2.33 µM); in data set [9], 1.56 µg/mL (≈ 4.66 µM); in data set [10] it was 0.2 µg/mL (≈ 0.597 µM); in data set [11] it was 12.5 µg/mL (≈ 37.3 µM). Also, the MIC was 6.25 µg/mL (≈ 18.7 µM) in [12]; 0.2 µg/mL (≈ 0.597 µM) in [13] (Salmonella typhimurium 8-9); 0.2 µg/mL (≈ 0.597 µM) in data set [15] (setting [24]); 6.25 µg/mL (≈ 18.7 µM) in [17]; 0.1 µg/mL (≈ 0.299 µM) in the data set with Escherichia coli P-140a (P140A, Escherichia coli P-140a); 0.2 µg/mL (≈ 0.597 µM) in the data set on Shigella flexneri 2a. For the same compound, the MIC in data set [19] (setting [25]) turned out to be 0.39 µg/mL (≈ 1.17 µM). Besides, the 50% lethal dose (LD50) at 168 h in “in vivo” is greater than 2000 mg/kg.
